Test systems include 786-0 renal; A498 renal; CCRF-CEM leukemia; COLO 205 colon; MALME-3M melanoma; MDA-MB-435; NCI-H522 lung; SF-295 CNS; SNB-19 CNS; SK-MEL-28 melanoma.
Common to all, as to assay: DTP human tumour cell line panel, 48 h

The structures appear in SMILES notation. “And” between values parts separate entries of the source, which are not always exact repeats. Equal entries are not always repeated.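 Values below derive from 48-hour exposures of cells grown in 96-well plates, with endpoints linearly interpolated between the two concentrations bracketing the appropriate inhibition level. At the GI50, growth is halved. TGI denotes the concentration required for complete inhibition of growth.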

`CCCCCCCCn1ccc2cc(NC(=O)Cn3cc(CN4CCC(C)CC4)nn3)ccc21`: the GI50 with 786-0 renal is 1.48 µM; with A498 renal it was 1.6 µM; with CCRF-CEM leukemia it was 2.5 µM; with COLO 205 colon, 1.82 µM; in the assay with MALME-3M melanoma, 1.66 µM; with MDA-MB-435 it was 1.65 µM. Besides, the GI50 with NCI-H522 lung was 1.73 µM; in the assay with SF-295 CNS it was 1.86 µM; in the assay with SNB-19 CNS it was 1.76 µM. The TGI in the assay on 786-0 renal amounted to 2.81 µM; with A498 renal it was 3.27 µM; in the assay with CCRF-CEM leukemia, 9.71 µM; in the assay with COLO 205 colon, 3.46 µM; with MALME-3M melanoma, 3.12 µM; in the assay on MDA-MB-435 it was 3.08 µM. The total growth inhibition concentration (TGI) with NCI-H522 lung worked out at 3.48 µM; in the assay with SF-295 CNS, 3.5 µM; in the assay on SNB-19 CNS it was 3.42 µM.
Regarding `COc1ccc(C2c3cc4c(c(OC)c3CC3OCC(=O)C32)OCO4)cc1OC` (centres undefined), the GI50 with 786-0 renal, with A498 renal, with CCRF-CEM leukemia, with COLO 205 colon, in the assay with SF-295 CNS and in the assay on SNB-19 CNS was < 0.01 µM throughout. Besides, the TGI in the assay on 786-0 renal was > 100 µM; in the assay with A498 renal, > 100 µM; in the assay on CCRF-CEM leukemia, < 0.01 µM; in the assay on COLO 205 colon, 0.074 µM and 0.0135 µM; in the assay with MDA-MB-435, > 100 µM; in the assay with NCI-H522 lung, 0.0181 µM. Besides, the TGI is < 0.01 µM with SF-295 CNS, > 100 µM in the assay with SK-MEL-28 melanoma and > 100 µM in the assay with SNB-19 CNS.
As for `Cc1ccc(NC(C(=O)c2ccccc2)c2ccccc2)cc1` (centres undefined), the GI50 in the assay with 786-0 renal is 4.02 µM; with A498 renal, 2.91 µM; in the assay with CCRF-CEM leukemia, 3.98 µM; with COLO 205 colon, 3.02 µM; in the assay on MALME-3M melanoma, 2.42 µM; with MDA-MB-435, 2.63 µM. In addition, the GI50 was 2.38 µM with SF-295 CNS, 8.07 µM in the assay with SK-MEL-28 melanoma and 4.26 µM with SNB-19 CNS. In addition, the TGI with 786-0 renal was 15.6 µM; in the assay with A498 renal, 15.5 µM; with CCRF-CEM leukemia it was 51.1 µM; in the assay with COLO 205 colon, 13.7 µM; with MALME-3M melanoma it was 9.52 µM; in the assay with MDA-MB-435, 12.7 µM. In addition, the TGI in the assay on SF-295 CNS is 8.71 µM; with SK-MEL-28 melanoma it was 37.3 µM; with SNB-19 CNS, > 100 µM.
Regarding `O=[N+]([O-])c1ccc(N/N=C/c2ccccc2O)nc1`, the GI50 in the assay with 786-0 renal was 3.03 µM; in the assay with A498 renal it was 63.4 µM; with COLO 205 colon, 0.544 µM; in the assay on MALME-3M melanoma, 5.8 µM; in the assay with MDA-MB-435, 3.03 µM; in the assay on NCI-H522 lung, 0.289 µM. In addition, the GI50 is 2.92 µM with SF-295 CNS, 4.38 µM in the assay on SK-MEL-28 melanoma and 3.88 µM in the assay on SNB-19 CNS. Besides, the TGI in the assay with 786-0 renal, in the assay with A498 renal, in the assay with COLO 205 colon, in the assay on MALME-3M melanoma, in the assay on MDA-MB-435 and in the assay on NCI-H522 lung was > 100 µM in each case. Also, the TGI with SF-295 CNS, in the assay with SK-MEL-28 melanoma and with SNB-19 CNS was > 100 µM in each case.
On to `O=C(O)c1ccccc1-c1ccccc1C(=O)Nc1ccc2c(c1)Cc1ccccc1-2`, for which the TGI was > 100 µM with 786-0 renal; 44 µM with A498 renal; 31.2 µM in the assay on COLO 205 colon; > 100 µM with MALME-3M melanoma; > 100 µM with MDA-MB-435; 55.2 µM with NCI-H522 lung. The TGI in the assay with SF-295 CNS, in the assay on SK-MEL-28 melanoma and with SNB-19 CNS was > 100 µM throughout.
Take `CCOP(=O)(CCN1CCN(CCCCCOc2cc3c(cc2OC)C(=O)N2CCC[C@H]2C=N3)CC1)OCC`: the GI50 in the assay on 786-0 renal was 12.5 µM; in the assay on A498 renal, 15 µM; in the assay on COLO 205 colon, 3.39 µM; in the assay on MALME-3M melanoma, 18.4 µM; with MDA-MB-435, 3.36 µM; in the assay on NCI-H522 lung it was 1.93 µM. Moreover, the GI50 with SK-MEL-28 melanoma is 6.35 µM; in the assay on SNB-19 CNS it was 5.65 µM. Moreover, the TGI in the assay on 786-0 renal is > 100 µM; in the assay on A498 renal it was 43 µM; in the assay with COLO 205 colon, 12.9 µM; with MALME-3M melanoma, 47.7 µM; in the assay with MDA-MB-435 it was 17.3 µM; in the assay on NCI-H522 lung, 7.8 µM. The results for the TGI in the assay with SK-MEL-28 melanoma and in the assay with SNB-19 CNS were 20.4 µM and > 100 µM, respectively.
`Cc1ccc(-n2nnc3c(sc4ccccc43)c2=O)cc1`: the GI50 with 786-0 renal is 3.4 µM; in the assay on A498 renal, 30.9 µM; in the assay on COLO 205 colon, 6.23 µM; with MALME-3M melanoma, 8.4 µM; with MDA-MB-435, 14.6 µM; with NCI-H522 lung it was 63.5 µM. Also, the GI50 was 3.03 µM in the assay with SF-295 CNS, > 100 µM with SK-MEL-28 melanoma and 6.22 µM with SNB-19 CNS. In addition, the TGI in the assay on 786-0 renal is 12.1 µM; with A498 renal, > 100 µM; in the assay on COLO 205 colon, > 100 µM; in the assay with MALME-3M melanoma, > 100 µM; with MDA-MB-435 it was > 100 µM; in the assay with NCI-H522 lung it was > 100 µM. Further, the TGI in the assay on SF-295 CNS is 14.5 µM; in the assay on SK-MEL-28 melanoma, > 100 µM; in the assay on SNB-19 CNS it was > 100 µM.
For the molecule `Cc1ccc2nc3sc(=O)sc3nc2c1`, the TGI was 28.8 µM in the assay on 786-0 renal; 20.2 µM in the assay on A498 renal; > 100 µM with CCRF-CEM leukemia; 27.8 µM in the assay with COLO 205 colon; 29.8 µM with MDA-MB-435; 35.7 µM with NCI-H522 lung. Further, the results for the TGI in the assay with SF-295 CNS, in the assay with SK-MEL-28 melanoma and in the assay with SNB-19 CNS were 31 µM, 48.9 µM and 36.7 µM, respectively.
Turning to `CC(=O)Nc1cc(C(c2ccccc2)c2ccccc2)cc(C(c2ccccc2)c2ccccc2)c1C`, the GI50 was > 100 µM in the assay on 786-0 renal; 6.24 µM in the assay on A498 renal; 7.36 µM in the assay on COLO 205 colon; 9.59 µM in the assay with MALME-3M melanoma; 6.81 µM in the assay with MDA-MB-435; 6.39 µM in the assay on NCI-H522 lung. In addition, the results for the GI50 in the assay on SF-295 CNS, in the assay on SK-MEL-28 melanoma and in the assay on SNB-19 CNS were 2.64 µM, > 100 µM and > 100 µM, respectively. In addition, the TGI in the assay on 786-0 renal, with A498 renal, in the assay on COLO 205 colon, in the assay with MALME-3M melanoma, with MDA-MB-435 and in the assay on NCI-H522 lung was > 100 µM throughout. Besides, the TGI was 7.49 µM in the assay with SF-295 CNS, > 100 µM in the assay with SK-MEL-28 melanoma and > 100 µM in the assay on SNB-19 CNS.

One may read the GI50 as the concentration that inhibits growth by half. As usually defined, the TGI is the concentration at which net growth stops. The low end stands for greater sensitivity of the cells, the high end for lower sensitivity of the cells.

For the origin of these results see PubChem BioAssay (NCI).
